Assay results published in US7122360B1, “Polypeptides, polynucleotides and uses thereof” (University of Dundee, priority 1998, dated 2006).
“Also recorded” adds a separate entry of the source.

Legend:
MSK1 [1] = experiment: Activation of transfected Flag-MSK1 in 293 cells; format: cell-based, human; settings: for UV-induced activation of transfected MSK1 / activation of transfected MSK1 by TPA: 50 μM PD 98059 or 10 μM SB 203580
Protocol: FIG. 6. Effect of mutation of MSK1 on activation by TPA and UV in 293 cells. 293 cells were transiently transfected with DNA constructs expressing Flag epitope tagged wild type MSK1, N-terminal (NT) “kinase dead” MSK1 and C-terminal (CT) “kinase dead” MSK1. […] The cells were lysed and the MSK1 was immunoprecipitated from the lysates and assayed with Crosstide.
Transfection of MSK1 into 293 cells. 293 cells were cultured on 10 cm diameter dishes and transfected with the pCMV5 vector encoding the Flag epitope tagged MSK1 constructs using a modified calcium phosphate method (Alessi et al., 1996b). 24 h post-transfection, the cells were deprived of serum for 16 h, stimulated with TPA or exposed to UV radiation, the cells were then lysed in 1 ml of ice cold Buffer A, centrifuged at 13,000×g for 5 min, and the Flag tagged MSK1 protein immunoprecipitated from aliquots of lysate (containing 25 μg protein) using 2 μg of FLAG antibody coupled to 5 (1 of Protein G-Sepharose.
Immunoprecipitates were incubated, washed and assayed for MSK1 activity as described above.

MAPKAP-K1 [2] = experiment: Activation of MAPKAP-K1 in SK-N-MC cells; format: cell-based; settings: 50 μM PD 98059, 10 μM SB 203580
Protocol: (§1) FIG. 14. […] After cell lysis aliquots were assayed for either MSK1 (A), MAPKAP-K1 (B), MAPKAP-K2 (C) after their immunoprecipitation from the lysates or immunoblotted for phosphorylation of CREB and ATF1 (D).
(§2) Cell Culture, stimulation and cell lysis.

MAPKAP-K1a/b [3] = experiment: Activation of MAPKAP-K1a/b in 293 cells; settings: 50 μM PD 98059 or 10 μM SB 203580
MAPKAP-K1 [4] = experiment: NGF-induced activation of MAPKAP-K1 in PC12 cells; settings: 50 μM PD 98059, 10 μM SB 203580
MSK1 [5] = experiment: Activation of endogenous MSK1 in 293 cells (immunoprecipitation and Crosstide assay); format: cell-based, human; settings: for activation of MSK1 by EGF and TPA: 50 μM PD 98059 or 10 μM SB 203580, 1 h
MAPK = settings: PC12 cells expressing high levels of the NGF receptor (Alessi et al., 1995); cited from earlier work
MSK1 [6] = experiment: Activation of MSK1 by TNF in HeLa cells; format: cell-based; settings: 50 μM PD 98059, 10 μM SB 203580, TNF 10 ng/ml
Source text: as §2

MAPKAP-K1a/b [7] = experiment: Activation of MAPKAP-K1a/b by TNF in HeLa cells; format: cell-based; settings: 50 μM PD 98059, 10 μM SB 203580
Source text: as §2

MSK1 [8] = target: MSK1 (Homo sapiens, UniProt O75582); experiment: Effect of Ro 318220 on GST-MSK1 activity in vitro; format: biochemical; settings: compared with PKC isoforms and MAPKAP-K1a/b
MSK1 (Homo sapiens, UniProt O75582), sequence (O75582 whole entry, canonical isoform): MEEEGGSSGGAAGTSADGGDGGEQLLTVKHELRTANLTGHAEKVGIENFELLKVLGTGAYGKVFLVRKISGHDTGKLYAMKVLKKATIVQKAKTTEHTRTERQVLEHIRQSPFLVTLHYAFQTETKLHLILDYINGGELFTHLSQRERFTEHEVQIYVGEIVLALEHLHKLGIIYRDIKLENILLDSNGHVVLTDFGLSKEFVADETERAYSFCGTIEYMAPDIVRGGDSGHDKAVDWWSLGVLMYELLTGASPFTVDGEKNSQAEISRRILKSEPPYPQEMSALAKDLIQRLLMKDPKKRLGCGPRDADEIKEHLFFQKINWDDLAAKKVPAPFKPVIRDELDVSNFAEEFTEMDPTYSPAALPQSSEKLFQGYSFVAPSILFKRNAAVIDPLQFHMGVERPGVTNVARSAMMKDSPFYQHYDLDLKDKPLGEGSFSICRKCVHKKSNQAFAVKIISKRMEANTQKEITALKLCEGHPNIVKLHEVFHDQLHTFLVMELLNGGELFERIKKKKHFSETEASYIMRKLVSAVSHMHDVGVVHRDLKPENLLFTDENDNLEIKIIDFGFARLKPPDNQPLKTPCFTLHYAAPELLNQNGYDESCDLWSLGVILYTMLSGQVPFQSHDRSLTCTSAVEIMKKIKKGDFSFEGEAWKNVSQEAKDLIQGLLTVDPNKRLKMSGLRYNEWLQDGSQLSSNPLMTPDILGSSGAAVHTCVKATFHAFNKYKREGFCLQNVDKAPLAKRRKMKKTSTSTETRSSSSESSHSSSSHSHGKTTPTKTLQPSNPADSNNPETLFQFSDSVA

MAPKAP-K2 [9] = experiment: Activation of MAPKAP-K2 by TNF in HeLa cells; format: cell-based
Source text: as §2

MAPKAP-K1a/b [10] = target: T1, MAPKAP-K1a/b (Oryctolagus cuniculus, UniProt A0A5F9C4L9); experiment: Effect of Ro 318220 on MAPKAP-K1a/b in vitro; format: biochemical; settings: Alessi 1997, FIG. 9A
T1 construct: GST
T1 sequence (A0A5F9C4L9 1-740): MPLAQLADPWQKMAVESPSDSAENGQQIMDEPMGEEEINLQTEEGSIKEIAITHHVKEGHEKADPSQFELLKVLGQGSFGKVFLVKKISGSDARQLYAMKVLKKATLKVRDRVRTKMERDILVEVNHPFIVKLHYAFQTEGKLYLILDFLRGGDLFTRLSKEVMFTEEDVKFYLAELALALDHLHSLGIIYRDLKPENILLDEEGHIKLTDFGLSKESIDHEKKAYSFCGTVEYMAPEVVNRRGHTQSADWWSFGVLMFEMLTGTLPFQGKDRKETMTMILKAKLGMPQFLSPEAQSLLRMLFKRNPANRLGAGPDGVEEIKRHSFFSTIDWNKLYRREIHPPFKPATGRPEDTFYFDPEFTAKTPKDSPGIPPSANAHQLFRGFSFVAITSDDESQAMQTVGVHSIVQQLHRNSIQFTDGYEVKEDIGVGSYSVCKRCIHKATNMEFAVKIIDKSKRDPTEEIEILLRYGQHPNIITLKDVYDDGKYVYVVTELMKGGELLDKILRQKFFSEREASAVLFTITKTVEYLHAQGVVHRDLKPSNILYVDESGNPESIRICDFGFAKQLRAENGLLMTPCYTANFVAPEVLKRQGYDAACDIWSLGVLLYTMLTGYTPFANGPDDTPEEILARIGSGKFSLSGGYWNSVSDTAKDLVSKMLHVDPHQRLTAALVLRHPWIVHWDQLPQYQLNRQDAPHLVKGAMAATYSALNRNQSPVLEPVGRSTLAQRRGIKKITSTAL
Protocol: (§3) FIG. 9. Effect of Ro 318220 on the activity of MSK1. (A) Effect of Ro 318220 on GST-MSK1 (closed circles), mixed PKC isoforms (open circles) GST-MAPKAP-K1b and MAPKAP-K2 (open triangles) in vitro. […] The error for each point is ±10%. […] The cells were lysed MAPKAP-K2 was immunoprecipitated and assayed. […] (C) as above except that 293 cells were incubated for 2 h in 32phosphate (0.1 mCi/ml) before treatment with inhibitors. Cells were then exposed to either UV radiation (200 J/m2) or left untreated (−), incubated for a further 20 min in the continued presence of inhibitors. Following cell lysis, HSP27 was immunoprecipitated from cell extracts (Cuenda et al., 1995) run on a 15% polyacrylamide gel and autoradiographed.

MAPKAP-K2 [11] = experiment: LPS-induced activation of MAPKAP-K2 in RAW 264 macrophages; format: cell-based, mouse; settings: LPS 100 ng/ml 1 h, 10 μM SB 203580, 5 TM Ro 318220
MAPKAP-K2 [12] = experiment: Activation of MAPKAP-K2 in SK-N-MC cells; format: cell-based; settings: 50 μM PD 98059, 10 μM SB 203580, 5 μM Ro 318220
Protocol: as §1, §2

MAPKAP-K1 [13] = experiment: LPS-induced activation of MAPKAP-K1 in RAW 264 macrophages; format: cell-based, mouse; settings: LPS 100 ng/ml 1 h, 10 μM UO 126, 5 TM Ro 318220
MSK2 = experiment: LPS-induced activation of MSK2 in RAW 264 macrophages; format: cell-based, mouse; settings: LPS 100 ng/ml 1 h, 10 μM UO 126, 10 μM SB 203580, 5 TM Ro 318220
HSP27 = experiment: UV induced phosphorylation of HSP27 in 293 cells; format: cell-based, human; settings: UV 200 J/m^2
Protocol: as §3

[14] = target: cyclic AMP dependent protein kinase (Homo sapiens, UniProt P17612); settings: 10 μM Ro 318220 (Davis et al., 1989); cited from earlier work
PKC isoforms = experiment: Effect of Ro 318220 on mixed PKC isoforms in vitro; format: biochemical; settings: Davis et al., 1989, Alessi 1997, FIG. 9A
Protocol: as §3

MAPKAP-K2 [15] = target: T2, MAPKAP-K2 (Homo sapiens, UniProt P49137); experiment: Effect of Ro 318220 on MAPKAP-K2 in vitro; format: biochemical; settings: even at 10 μM
T2 construct: GST; made in house; host or cells: bacteria
T2 sequence (P49137 46-400 limits assumed): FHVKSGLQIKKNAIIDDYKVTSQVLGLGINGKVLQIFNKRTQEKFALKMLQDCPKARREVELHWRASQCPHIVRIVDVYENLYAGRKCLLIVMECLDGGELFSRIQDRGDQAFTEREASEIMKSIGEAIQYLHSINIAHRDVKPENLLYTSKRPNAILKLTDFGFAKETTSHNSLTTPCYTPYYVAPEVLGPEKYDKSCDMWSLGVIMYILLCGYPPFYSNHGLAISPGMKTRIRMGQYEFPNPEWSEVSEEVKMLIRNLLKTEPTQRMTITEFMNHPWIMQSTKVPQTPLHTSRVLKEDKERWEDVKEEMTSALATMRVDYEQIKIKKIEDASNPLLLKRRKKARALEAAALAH
Protocol: as §3

MAPKAP-K2 [16] = experiment: Activation of MAPKAP-K2 in 293 cells; format: cell-based, human; settings: 50 μM PD 98059 or 10 μM SB 203580
Protocol: as §3, §2

What does the source list for `COc1cccc(-c2cc(=O)c3ccccc3o2)c1N` [PD 98059]?
UV-induced activation of transfected MSK1 (MSK1 [1]): unaffected; activation of transfected MSK1 by TPA (MSK1 [1]): prevented; activation of transfected wild type MSK1 by EGF, basic FGF and serum (MSK1 [1]; data not shown): prevented; activation of MAPKAP-K1 by FGF (MAPKAP-K1 [2]): abolished; activation of MAPKAP-K1a/b by EGF and TPA (MAPKAP-K1a/b [3]): largely suppressed; NGF-induced activation of MAPKAP-K1 (MAPKAP-K1 [4]): only partially inhibited; activation of MSK1 by EGF and TPA (MSK1 [5]): largely prevented; NGF-induced activation of MAPK (MAPK): only partially suppresses; activation of MSK1 by TNF after 5 min (MSK1 [6]): unaffected; activation of MSK1 by TNF after 15 min (MSK1 [6]): partially blocked; activation of MAPKAP-K1a/b after 15 min of TNF stimulation (MAPKAP-K1a/b [7]): suppressed

For `Cn1cc(C2=C(c3cn(CCCSC(=N)N)c4ccccc34)C(=O)NC2=O)c2ccccc21` [Ro 318220], which “inhibition of MSK1 activity in vitro” value (MSK1 [8]) is on record?
Its value is “equally potent inhibitor; also recorded: reversible inhibitor”.

What about the “activation of MAPKAP-K2 by TNF” value (MAPKAP-K2 [9]; 5 μM Ro 318220, data not shown) of the same molecule?
Its value is “unaffected”.

And the IC50 (MAPKAP-K1a/b [10])?
The IC50 was 10 to 30 nM.

And the “LPS-induced activation of MAPKAP-K2” value (MAPKAP-K2 [11])?
The value was “does not affect”.

What about the “activation of MAPKAP-K2 by sodium arsenite and FGF” value (MAPKAP-K2 [12]) of the same molecule?
The value was “does not affect”.

And the “LPS-induced activation of MAPKAP-K1” value (MAPKAP-K1 [13])?
Its value is “does not affect”.

And the “LPS-induced activation of MSK2” value (MSK2)?
The value was “does not affect”.

And the “UV induced phosphorylation of HSP27” value (HSP27)?
Its value is “did not significantly affect”.

And the “inhibition of cyclic AMP dependent protein kinase” value [14]?
The value was “not significantly inhibited”.

And the IC50 (PKC isoforms)?
Its IC50 is 10 to 30 nM.

And the “inhibition of MAPKAP-K2 in vitro” value (MAPKAP-K2 [15])?
The value was “does not significantly inhibit”.

What does the source list for `C[S+]([O-])c1ccc(-c2nc(-c3ccncc3)c(-c3ccc(F)cc3)[nH]2)cc1` (stereo not drawn) [SB 203580]?
UV-induced activation of transfected MSK1 (MSK1 [1]): prevented; activation of transfected MSK1 by TPA (MSK1 [1]): but not by SB 203580; activation of MAPKAP-K2 after 5 min of TNF stimulation (MAPKAP-K2 [9]; 50 μM PD 98059, 10 μM SB 203580): inhibited; activation of MAPKAP-K1a/b by EGF and TPA (MAPKAP-K1a/b [3]): but not by SB 203580; LPS-induced activation of MAPKAP-K2 (MAPKAP-K2 [11]): completely block; NGF-induced activation of MAPKAP-K1 (MAPKAP-K1 [4]): unaffected; activation of MAPKAP-K2 by sodium arsenite and FGF (MAPKAP-K2 [12]): completely prevented; activation of MSK1 by EGF and TPA (MSK1 [5]): but not by SB 203580; activation of MSK1 by stressful stimuli (MSK1 [5]; sodium arsenite, UV radiation or H2O2, 50 μM PD 98059 or 10 μM SB 203580): largely inhibited; activation of MSK1 by TNF after 5 min (MSK1 [6]): completely inhibited; activation of MSK1 by TNF after 15 min (MSK1 [6]): partially blocked; LPS-induced activation of MSK2 (MSK2): only inhibited partially; activation of MAPKAP-K2 by stressful stimuli (MAPKAP-K2 [16]): prevented; UV induced phosphorylation of HSP27 (HSP27): blocked
